Drawing on patent US8796001B2, “Metalloenzyme inhibitor compounds” (Viamet Pharmaceuticals, Inc., priority 2011, dated 2014), this text covers pest or weed control for 29 compounds.

The test relates to Puccinia recondita tritici = Puccinia triticina (PUCCRT). Put plainly: Fungicidal activity vs. leaf rust on wheat plants. It is filed as in vivo. As to conditions: wheat (Yuma) sprayed at 50 ppm, inoculated the following day, rated 7-9 days later, read-out: Puccinia Rating (% Disease Control @ 50 ppm). The source says:
D. Evaluation of Fungicidal Activity vs. Leaf Rust (Causal Agent Puccinia Recondita Tritici=Puccinia Triticina; Bayer Code PUCCRT)
Each pot contained 3-8 seedlings. These plants were sprayed until wet with the formulated test compounds. The compounds were formulated at 50 ppm in 10 vol. % acetone plus 90 vol. % Triton X water (deionized water 99.99 wt %+0.01 wt % Triton X100), giving a “formulated test compound.” Formulated test compounds were applied to plants using a turn table sprayer fitted with two opposing air atomization nozzles which delivered approximately 1500 L/ha of spray volume. On the following day, the leaves were inoculated with an aqueous spore suspension of Puccinia recondita tritici and the plants were kept in high humidity overnight to permit spores to germinate and infect the leaf. The plants were then transferred to a greenhouse until disease developed on untreated control plants. Disease severity was evaluated 7-9 days later, depending on the speed of disease development.
In each case of Table 3, the Puccinia rating scale is as follows: […]
`OC(Cn1cnnn1)(c1ccc(F)cc1F)C(F)(F)c1ccc(Oc2cccc(Cl)c2)cn1` (centres unmarked) [Compound 84, 1-(5-(3-Chlorophenoxy)pyridin-2-yl)-2-(2,4-difluorophenyl)-1,1-difluoro-3-(1H-tetrazol-1-yl)propan-2-ol]: the pest or weed control at 50 ppm fell in the range of 80 to 100%.
The result for `N#Cc1ccc(COc2ccc(C(F)(F)C(O)(Cn3ncnn3)c3ccc(F)cc3F)nc2)cc1` (centres unmarked) [Compound 83, 4-(((6-(2-(2,4-Difluorophenyl)-1,1-difluoro-2-hydroxy-3-(2H-tetrazol-2-yl)propyl)pyridin-3-yl)oxy)methyl)benzonitrile] reads 40 to 59%; that for `OC(Cn1cnnn1)(c1ccc(F)cc1F)C(F)(F)c1ccc(OCc2ccc(Cl)nc2)cn1` (centres unmarked) [Compound 116, 1-(5-((6-chloropyridin-3-yl)methoxy)pyridin-2-yl)-2-(2,4-difluorophenyl)-1,1-difluoro-3-(1H-tetrazol-1-yl)propan-2-ol], 80 to 100%; that for `N#Cc1ccc(COc2ccc(C(F)(F)C(O)(Cn3cnnn3)c3ccc(F)cc3F)nc2)cc1` (centres unmarked) [Compound 9, 4-(((6-(2-(2,4-Difluorophenyl)-1,1-difluoro-2-hydroxy-3-(1H-tetrazol-1-yl)propyl)pyridin-3-yl)oxy)methyl)benzonitrile], 80 to 100%.
The figure for `OC(Cn1cnnn1)(c1ccc(F)cc1F)C(F)(F)c1ccc(Oc2ccccc2F)cn1` (centres unmarked) [Compound 88, 2-(2,4-Difluorophenyl)-1,1-difluoro-1-(5-(2-fluorophenoxy)pyridin-2-yl)-3-(1H-tetrazol-1-yl)propan-2-ol] is 80 to 100%; for `N#Cc1ccc(COc2ccc(C(F)(F)C(O)(Cn3cnnn3)c3ccc(Cl)cc3F)nc2)cc1` (centres unmarked) [Compound 55, 4-(((6-(2-(4-Chloro-2-fluorophenyl)-1,1-difluoro-2-hydroxy-3-(1H-tetrazol-1-yl)propyl)pyridin-3-yl)oxy)methyl)benzonitrile] it is 80 to 100%; for `OC(Cn1cnnn1)(c1ccc(F)cc1F)C(F)(F)c1ccc(Oc2ncc(C(F)(F)F)cc2F)cn1` (centres unmarked) [Compound 104, 2-(2,4-difluorophenyl)-1,1-difluoro-1-(5-((3-fluoro-5-(trifluoromethyl)pyridin-2-yl)oxy)pyridin-2-yl)-3-(1H-tetrazol-1-yl)propan-2-ol] it is 80 to 100%.
The result for `CC(C)Oc1ccc(C(F)(F)C(O)(Cn2cnnn2)c2ccc(F)cc2F)nc1` (centres unmarked) [Compound 42, 2-(2,4-Difluorophenyl)-1,1-difluoro-1-(5-isopropoxypyridin-2-yl)-3-(1H-tetrazol-1-yl)propan-2-ol] reads 80 to 100%; that for `OC(Cn1cnnn1)(c1ccc(F)cc1F)C(F)(F)c1ccc(OCc2cccc(F)c2)cn1` (centres unmarked) [Compound 3, 2-(2,4-Difluorophenyl)-1,1-difluoro-1-(5-(3-fluorobenzyloxy)pyridin-2-yl)-3-(1H-tetrazol-1-yl)propan-2-ol], 80 to 100%.
Consider `N#Cc1ccc(Oc2ccc(C(F)(F)C(O)(Cn3cnnn3)c3ccc(F)cc3F)nc2)cc1` (centres unmarked) [Compound 5, 4-(6-(2-(2,4-Difluorophenyl)-1,1-difluoro-2-hydroxy-3-(1H-tetrazol-1-yl)propyl)pyridin-3-yloxy)benzonitrile], for which the pest or weed control at 50 ppm was in the range of 80 to 100%.
For the compound `N#Cc1ccc(Oc2ccc(C(F)(F)C(O)(Cn3cnnn3)c3ccc(F)cc3F)nc2)c(F)c1` (centres unmarked) [Compound 89, 4-((6-(2-(2,4-Difluorophenyl)-1,1-difluoro-2-hydroxy-3-(1H-tetrazol-1-yl)propyl)pyridin-3-yl)oxy)-3-fluorobenzonitrile], the pest or weed control at 50 ppm is 80 to 100%.
The result for `N#Cc1ncc(Oc2ccc(C(F)(F)C(O)(Cn3cnnn3)c3ccc(F)cc3F)nc2)cn1` (centres unmarked) [Compound 100, 5-((6-(2-(2,4-difluorophenyl)-1,1-difluoro-2-hydroxy-3-(1H-tetrazol-1-yl)propyl)pyridin-3-yl)oxy)pyrimidine-2-carbonitrile] reads 60 to 79%; that for `OC(Cn1cnnn1)(c1ccc(F)cc1F)C(F)(F)c1ccc(Oc2ccc(Cl)cn2)cn1` (centres unmarked) [Compound 95, 1-(5-((5-chloropyridin-2-yl)oxy)pyridin-2-yl)-2-(2,4-difluorophenyl)-1,1-difluoro-3-(1H-tetrazol-1-yl)propan-2-ol], 80 to 100%; that for `N#Cc1cccc(COc2ccc(C(F)(F)C(O)(Cn3cnnn3)c3ccc(F)cc3F)nc2)c1` (centres unmarked) [Compound 52, 3-(((6-(2-(2,4-Difluorophenyl)-1,1-difluoro-2-hydroxy-3-(1H-tetrazol-1-yl)propyl)pyridin-3-yl)oxy)methyl)benzonitrile], 80 to 100%.
`COc1ccc(COc2ccc(C(F)(F)C(O)(Cn3cnnn3)c3ccc(F)cc3F)nc2)cc1` (centres unmarked) [Compound 41, 2-(2,4-Difluorophenyl)-1,1-difluoro-1-(5-((4-methoxybenzyl)oxy)pyridin-2-yl)-3-(1H-tetrazol-1-yl)propan-2-ol]: the pest or weed control at 50 ppm fell in the range of 80 to 100%.
`OC(Cn1cnnn1)(c1ccc(Cl)cc1F)C(F)(F)c1ccc(OCC(F)(F)F)cn1` (centres unmarked) [Compound 71, 2-(4-Chloro-2-fluorophenyl)-1,1-difluoro-3-(1H-tetrazol-1-yl)-1-(5-(2,2,2-trifluoroethoxy)pyridin-2-yl)propan-2-ol]: the pest or weed control at 50 ppm fell in the range of 80 to 100%.
The result for `OC(Cn1cnnn1)(c1ccc(F)cc1F)C(F)(F)c1ccc(OCc2ccc(Cl)c(F)c2)cn1` (centres unmarked) [Compound 27, 1-(5-((4-Chloro-3-fluorobenzyl)oxy)pyridin-2-yl)-2-(2,4-difluorophenyl)-1,1-difluoro-3-(1H-tetrazol-1-yl)propan-2-ol] reads 80 to 100%.
For the compound `OC(Cn1cnnn1)(c1ccc(F)cc1F)C(F)(F)c1ccc(Oc2ncc(Br)cn2)cn1` (centres unmarked) [Compound 99, 1-(5-((5-bromopyrimidin-2-yl)oxy)pyridin-2-yl)-2-(2,4-difluorophenyl)-1,1-difluoro-3-(1H-tetrazol-1-yl)propan-2-ol], the pest or weed control at 50 ppm was in the range of 80 to 100%.
`OC(Cn1cnnn1)(c1ccc(F)cc1F)C(F)(F)c1ccc(OCc2ccncc2)cn1` (centres unmarked) [Compound 118, 2-(2,4-difluorophenyl)-1,1-difluoro-1-(5-(pyridin-4-ylmethoxy)pyridin-2-yl)-3-(1H-tetrazol-1-yl)propan-2-ol]: the pest or weed control at 50 ppm is under 40%.
Consider `N#Cc1cc(Oc2ccc(C(F)(F)C(O)(Cn3cnnn3)c3ccc(F)cc3F)nc2)ccn1` (centres unmarked) [Compound 96, 4-((6-(2-(2,4-difluorophenyl)-1,1-difluoro-2-hydroxy-3-(1H-tetrazol-1-yl)propyl)pyridin-3-yl)oxy)picolinonitrile], for which the pest or weed control at 50 ppm lay within 60 to 79%.
The figure for `OC(Cn1cnnn1)(c1ccc(F)cc1F)C(F)(F)c1ccc(OCC(F)(F)c2ccc(Cl)cc2)cn1` (centres unmarked) [Compound 122, 1-(5-(2-(4-chlorophenyl)-2,2-difluoroethoxy)pyridin-2-yl)-2-(2,4-difluorophenyl)-1,1-difluoro-3-(1H-tetrazol-1-yl)propan-2-ol] is 80 to 100%; for `OC(Cn1cnnn1)(c1ccc(F)cc1F)C(F)(F)c1ccc(Oc2ccccc2)cn1` (centres unmarked) [Compound 11, 2-(2,4-Difluorophenyl)-1,1-difluoro-1-(5-phenoxypyridin-2-yl)-3-(1H-tetrazol-1-yl)propan-2-ol] it is 80 to 100%; for `OC(Cn1cnnn1)(c1ccc(F)cc1F)C(F)(F)c1ccc(Oc2ccc(F)c(F)c2)cn1` (centres unmarked) [Compound 86, 1-(5-(3,4-Difluorophenoxy)pyridin-2-yl)-2-(2,4-difluorophenyl)-1,1-difluoro-3-(1H-tetrazol-1-yl)propan-2-ol] it is 80 to 100%.
Regarding `N#Cc1ccc(Oc2ccc(C(F)(F)C(O)(Cn3cnnn3)c3ccc(F)cc3F)nc2)nc1` (centres unmarked) [Compound 93, 6-((6-(2-(2,4-difluorophenyl)-1,1-difluoro-2-hydroxy-3-(1H-tetrazol-1-yl)propyl)pyridin-3-yl)oxy)nicotinonitrile], the pest or weed control at 50 ppm was 80 to 100%.
The figure for `CC(C)COc1ccc(C(F)(F)C(O)(Cn2cnnn2)c2ccc(Cl)cc2F)nc1` (centres unmarked) [Compound 69, 2-(4-Chloro-2-fluorophenyl)-1,1-difluoro-1-(5-isobutoxypyridin-2-yl)-3-(1H-tetrazol-1-yl)propan-2-ol] is 80 to 100%.
The figure for `COc1ccc(Oc2ccc(C(F)(F)C(O)(Cn3cnnn3)c3ccc(F)cc3F)nc2)cc1` (centres unmarked) [Compound 87, 2-(2,4-Difluorophenyl)-1,1-difluoro-1-(5-(4-methoxyphenoxy)pyridin-2-yl)-3-(1H-tetrazol-1-yl)propan-2-ol] is 80 to 100%; for `COc1cccc(Oc2ccc(C(F)(F)C(O)(Cn3cnnn3)c3ccc(F)cc3F)nc2)c1` (centres unmarked) [Compound 85, 2-(2,4-Difluorophenyl)-1,1-difluoro-1-(5-(3-methoxyphenoxy)pyridin-2-yl)-3-(1H-tetrazol-1-yl)propan-2-ol] it is 80 to 100%; for `CO/N=C/c1ccc(Oc2ccc(C(F)(F)C(O)(Cn3cnnn3)c3ccc(F)cc3F)nc2)nc1` (centres unmarked) [Compound 102, (E)-6-((6-(2-(2,4-difluorophenyl)-1,1-difluoro-2-hydroxy-3-(1H-tetrazol-1-yl)propyl)pyridin-3-yl)oxy)nicotinaldehyde O-methyl oxime] it is 80 to 100%.
In the case of `OC(Cn1cnnn1)(c1ccc(F)cc1F)C(F)(F)c1ccc(Oc2ccc(Cl)cc2)cn1` (centres unmarked) [Compound 7, 1-(5-(4-Chlorophenoxy)pyridin-2-yl)-2-(2,4-difluorophenyl)-1,1-difluoro-3-(1H-tetrazol-1-yl)propan-2-ol], the pest or weed control at 50 ppm was in the range of 80 to 100%.
